Drawing on US8022206B2 (OSI Pharmaceuticals, LLC, priority 2008, dated 2011), this text covers IC50 for 20 molecules.

For one test, the target named is RON (human) (Homo sapiens, UniProt Q04912). Put plainly: RON (human) AlphaScreen kinase assay, Km of ATP. In kind it is biochemical. The note with it: AlphaScreen, Km of ATP; read-out: RON biochemical IC50. The method in brief: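 Reaction was started with enzyme and run 30 min at RT. PT66 donor/acceptor beads in an EDTA-containing Tris pH 7.5 buffer were then added, and the signal was read after 1 h.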

The target in another test is MET (human) (Homo sapiens, UniProt P08581). Put plainly: MET (human) AlphaScreen kinase assay, Km of ATP. It is filed as biochemical. The note with it: AlphaScreen, Km of ATP; read-out: Met biochemical IC50. The method in brief: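 Human MET at lot-optimised concentration in 50 mM Tris pH 7.4 buffer with 1 mM DTT, compound at 1% DMSO final; enzyme starts the reaction, 60 min at RT.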

Structures are written as SMILES.

Sequence of MET (human) (P08581 25-1390): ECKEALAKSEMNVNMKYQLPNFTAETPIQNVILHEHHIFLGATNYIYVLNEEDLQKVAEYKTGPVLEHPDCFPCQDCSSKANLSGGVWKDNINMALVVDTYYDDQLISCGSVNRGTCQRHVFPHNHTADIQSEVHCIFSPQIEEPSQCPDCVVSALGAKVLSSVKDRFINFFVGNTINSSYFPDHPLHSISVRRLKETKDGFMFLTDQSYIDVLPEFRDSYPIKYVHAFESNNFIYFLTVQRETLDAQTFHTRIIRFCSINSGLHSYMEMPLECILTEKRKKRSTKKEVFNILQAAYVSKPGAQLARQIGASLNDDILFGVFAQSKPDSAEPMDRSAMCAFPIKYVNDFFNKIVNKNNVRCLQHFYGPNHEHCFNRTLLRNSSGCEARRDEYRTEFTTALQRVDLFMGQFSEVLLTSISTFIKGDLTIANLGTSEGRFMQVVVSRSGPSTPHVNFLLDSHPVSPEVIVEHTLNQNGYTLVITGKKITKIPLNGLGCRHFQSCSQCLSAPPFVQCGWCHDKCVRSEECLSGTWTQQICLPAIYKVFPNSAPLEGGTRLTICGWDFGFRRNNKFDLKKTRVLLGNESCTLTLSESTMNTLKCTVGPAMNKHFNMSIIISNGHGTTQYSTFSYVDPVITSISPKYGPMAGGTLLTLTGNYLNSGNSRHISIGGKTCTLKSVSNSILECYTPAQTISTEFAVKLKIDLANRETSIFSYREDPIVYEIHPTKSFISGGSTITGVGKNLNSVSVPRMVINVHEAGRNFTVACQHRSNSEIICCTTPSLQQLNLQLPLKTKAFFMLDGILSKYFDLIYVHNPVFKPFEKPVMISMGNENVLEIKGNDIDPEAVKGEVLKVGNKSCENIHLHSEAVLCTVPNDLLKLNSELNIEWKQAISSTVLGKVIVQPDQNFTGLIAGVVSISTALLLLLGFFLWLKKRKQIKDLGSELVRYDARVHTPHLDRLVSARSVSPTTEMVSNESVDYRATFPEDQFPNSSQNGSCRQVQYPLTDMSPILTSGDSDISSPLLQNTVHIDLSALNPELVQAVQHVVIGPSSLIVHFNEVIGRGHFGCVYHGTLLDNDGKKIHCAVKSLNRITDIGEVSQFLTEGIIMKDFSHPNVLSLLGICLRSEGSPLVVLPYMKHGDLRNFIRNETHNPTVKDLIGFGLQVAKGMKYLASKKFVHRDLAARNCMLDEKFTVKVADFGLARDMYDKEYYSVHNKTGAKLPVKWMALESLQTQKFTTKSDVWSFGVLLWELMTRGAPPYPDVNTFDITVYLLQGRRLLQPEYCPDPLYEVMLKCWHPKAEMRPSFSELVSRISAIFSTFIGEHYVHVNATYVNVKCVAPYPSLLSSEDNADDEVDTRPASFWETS
Sequence of RON (human) (Q04912 25-1400): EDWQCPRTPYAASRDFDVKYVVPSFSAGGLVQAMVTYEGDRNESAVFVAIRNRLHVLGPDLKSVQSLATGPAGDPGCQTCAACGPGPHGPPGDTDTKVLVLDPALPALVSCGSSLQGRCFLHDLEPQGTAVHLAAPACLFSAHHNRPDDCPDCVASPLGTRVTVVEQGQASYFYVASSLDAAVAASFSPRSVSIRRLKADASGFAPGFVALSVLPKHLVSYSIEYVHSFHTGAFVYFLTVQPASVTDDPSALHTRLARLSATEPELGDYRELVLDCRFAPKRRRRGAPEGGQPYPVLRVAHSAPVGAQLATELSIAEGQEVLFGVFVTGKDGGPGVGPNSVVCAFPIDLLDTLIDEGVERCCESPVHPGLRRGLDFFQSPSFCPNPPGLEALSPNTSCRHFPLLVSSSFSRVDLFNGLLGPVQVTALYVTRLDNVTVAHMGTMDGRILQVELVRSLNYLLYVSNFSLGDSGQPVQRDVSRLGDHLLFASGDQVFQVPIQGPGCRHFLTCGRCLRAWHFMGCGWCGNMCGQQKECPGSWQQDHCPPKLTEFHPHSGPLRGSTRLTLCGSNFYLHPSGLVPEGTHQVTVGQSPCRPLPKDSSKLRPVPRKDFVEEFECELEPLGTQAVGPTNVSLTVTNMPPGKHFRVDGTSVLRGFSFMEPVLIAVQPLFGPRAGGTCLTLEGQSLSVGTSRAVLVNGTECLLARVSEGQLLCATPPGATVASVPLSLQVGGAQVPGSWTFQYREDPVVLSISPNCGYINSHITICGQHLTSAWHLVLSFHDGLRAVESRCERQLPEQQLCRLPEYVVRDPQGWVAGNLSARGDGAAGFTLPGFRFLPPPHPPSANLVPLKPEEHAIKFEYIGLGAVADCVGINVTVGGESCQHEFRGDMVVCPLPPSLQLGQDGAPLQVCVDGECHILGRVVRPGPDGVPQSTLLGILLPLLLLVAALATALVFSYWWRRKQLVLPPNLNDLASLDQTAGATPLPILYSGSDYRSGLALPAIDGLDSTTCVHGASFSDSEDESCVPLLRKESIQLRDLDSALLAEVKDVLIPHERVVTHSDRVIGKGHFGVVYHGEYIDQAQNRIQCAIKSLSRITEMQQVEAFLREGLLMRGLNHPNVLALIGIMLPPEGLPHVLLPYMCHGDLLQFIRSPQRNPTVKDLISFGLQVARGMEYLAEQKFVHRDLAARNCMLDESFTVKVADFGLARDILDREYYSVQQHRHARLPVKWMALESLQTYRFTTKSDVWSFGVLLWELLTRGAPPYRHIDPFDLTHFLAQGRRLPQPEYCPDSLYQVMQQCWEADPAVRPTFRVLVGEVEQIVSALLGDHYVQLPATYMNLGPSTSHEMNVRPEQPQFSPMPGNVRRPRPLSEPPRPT

Regarding `C[C@@H](Oc1c(N)ncc2c(-c3ccc(C(=O)N(C)C)cc3)coc12)c1c(Cl)ccc(F)c1Cl` [Example 72, 4-{6-Amino-7-[(R)-1-(2,6-dichloro-3-fluorophenyl)ethoxy]-furo[3,2-c]pyridin-3-yl}-N,N-dimethylbenzamide], the IC50 at RON (human) was 500 to 5000 nM; on MET (human) it was below 500 nM.
Consider `C[C@@H](Oc1c(N)ncc2c(-c3cccc(C(=O)N(C)C)c3)coc12)c1c(Cl)ccc(F)c1Cl` [Example 73, 3-{6-Amino-7-[(R)-1-(2,6-dichloro-3-fluorophenyl)ethoxy]-furo[3,2-c]pyridin-3-yl}-N,N-dimethylbenzamide], for which the IC50 at RON (human) and at MET (human) was 500 to 5000 nM throughout.
As to `C[C@@H](Oc1c(N)ncc2c(-c3cccc(C(=O)NCCN(C)C)c3)coc12)c1c(Cl)ccc(F)c1Cl` [Example 74, 3-{6-Amino-7-[(R)-1-(2,6-dichloro-3-fluorophenyl)ethoxy]-furo[3,2-c]pyridin-3-yl}-N-(2-dimethylaminoethyl)benzamide], the IC50 on RON (human) and at MET (human) was below 500 nM throughout.
Regarding `C[C@@H](Oc1c(N)ncc2c(-c3ccc(C(=O)N4CCN(C)CC4)cc3)coc12)c1c(Cl)ccc(F)c1Cl` [Example 75, (4-{6-Amino-7-[(R)-1-(2,6-dichloro-3-fluorophenyl)ethoxy]-furo[3,2-c]pyridin-3-yl}phenyl)-(4-methylpiperazin-1-yl)methanone], the IC50 was 500 to 5000 nM on RON (human) and below 500 nM on MET (human).
The corresponding values for `C[C@@H](Oc1c(N)ncc2c(-c3ccc(NS(C)(=O)=O)cc3)coc12)c1c(Cl)ccc(F)c1Cl` [Example 76, N-(4-{6-Amino-7-[(R)-1-(2,6-dichloro-3-fluorophenyl)ethoxy]-furo[3,2-c]pyridin-3-yl}phenyl)methanesulfonamide] are 500 to 5000 nM and below 500 nM.
On to `C[C@@H](Oc1c(N)ncc2c(-c3ccc(N)cc3)coc12)c1c(Cl)ccc(F)c1Cl` [Example 77, 3-(4-Aminophenyl)-7-[(R)-1-(2,6-dichloro-3-fluorophenyl)-ethoxy]furo[3,2-c]pyridin-6-ylamine], for which the IC50 on RON (human) and at MET (human) was 500 to 5000 nM each time.
As to `CC(=O)Nc1cccc(-c2coc3c(O[C@H](C)c4c(Cl)ccc(F)c4Cl)c(N)ncc23)c1` [Example 78, N-(3-{6-Amino-7-[(R)-1-(2,6-dichloro-3-fluorophenyl)ethoxy]-furo[3,2-c]pyridin-3-yl}phenyl)acetamide], the IC50 on RON (human) and at MET (human) was 500 to 5000 nM throughout.
Regarding `C[C@@H](Oc1c(N)ncc2c(-c3cccc(NS(C)(=O)=O)c3)coc12)c1c(Cl)ccc(F)c1Cl` [Example 79, N-(3-{6-Amino-7-[(R)-1-(2,6-dichloro-3-fluorophenyl)ethoxy]-furo[3,2-c]pyridin-3-yl}phenyl)methanesulfonamide], the IC50 is 500 to 5000 nM on RON (human) and below 500 nM on MET (human).
In the case of `C[C@@H](Oc1c(N)ncc2c(-c3cccc(C(=O)O)c3)coc12)c1c(Cl)ccc(F)c1Cl` [Example 80, 3-{6-Amino-7-[(R)-1-(2,6-dichloro-3-fluorophenyl)ethoxy]-furo[3,2-c]pyridin-3-yl}benzoic acid], the IC50 on RON (human) and on MET (human) was 500 to 5000 nM each time.
For `COc1cc(OC)cc(-c2coc3c(O[C@H](C)c4c(Cl)ccc(F)c4Cl)c(N)ncc23)c1` [Example 81, 7-[(R)-1-(2,6-Dichloro-3-fluorophenyl)ethoxy]-3-(3,5-dimethoxyphenyl)furo[3,2-c]pyridin-6-ylamine], the half-inhibitory concentration (IC50) on RON (human) and on MET (human) was 500 to 5000 nM each time.
As to `C[C@@H](Oc1c(N)ncc2c(-c3ccn4ccnc4c3)coc12)c1c(Cl)ccc(F)c1Cl` [Example 82, 7-[(R)-1-(2,6-Dichloro-3-fluorophenyl)ethoxy]-3-imidazo[1,2-a]pyridin-7-ylfuro[3,2-c]pyridin-6-ylamine], the IC50 was 500 to 5000 nM on RON (human) and below 500 nM on MET (human).
Regarding `CNS(=O)(=O)c1cccc(-c2coc3c(O[C@H](C)c4c(Cl)ccc(F)c4Cl)c(N)ncc23)c1` [Example 83, 3-{6-Amino-7-[(R)-1-(2,6-dichloro-3-fluorophenyl)ethoxy]-furo[3,2-c]pyridin-3-yl}-N-methylbenzenesulfonamide], the IC50 on RON (human) and on MET (human) was 500 to 5000 nM throughout.
On to `C[C@@H](Oc1c(N)ncc2c(-c3ccc(C(=O)N4CCCC4)cc3)coc12)c1c(Cl)ccc(F)c1Cl` [Example 84, (4-{6-Amino-7-[(R)-1-(2,6-dichloro-3-fluorophenyl)ethoxy]-furo[3,2-c]pyridin-3-yl}phenyl)pyrrolidin-1-ylmethanone], for which the IC50 on RON (human) was 500 to 5000 nM; at MET (human), below 500 nM.
With `C[C@@H](Oc1c(N)ncc2c(-c3ccc(CN4CCOCC4)cc3)coc12)c1c(Cl)ccc(F)c1Cl` [Example 85, 7-[(R)-1-(2,6-Dichloro-3-fluorophenyl)ethoxy]-3-(4-morpholin-4-ylmethylphenyl)furo[3,2-c]pyridin-6-ylamine], the IC50 at RON (human) and at MET (human) was 500 to 5000 nM each time.
Take `C[C@@H](Oc1c(N)ncc2c(-c3ccc(N4CCN(C)CC4)cc3)coc12)c1c(Cl)ccc(F)c1Cl` [Example 86, 7-[(R)-1-(2,6-Dichloro-3-fluor-phenyl)ethoxy]-3-[4-(4-methylpiperazin-1-yl)-phenyl]furo[3,2-c]pyridin-6-ylamine]: the IC50 at RON (human) and on MET (human) was below 500 nM in each case.
For `C[C@@H](Oc1c(N)ncc2c(-c3cnn(CCN4CCOCC4)c3)coc12)c1c(Cl)ccc(F)c1Cl` [Example 87, 7-[(R)-1-(2,6-Dichloro-3-fluorophenyl)ethoxy]-3-[1-(2-morpholin-4-ylethyl)-1H-pyrazol-4-yl]furo[3,2-c]pyridin-6-ylamine], the IC50 at RON (human) and on MET (human) was 500 to 5000 nM each time.
As for `C[C@@H](Oc1c(N)ncc2c(-c3ccc(N4CCN(C)CC4)nc3)coc12)c1c(Cl)ccc(F)c1Cl` [Example 88, 7-[(R)-1-(2,6-Dichloro-3-fluorophenyl)ethoxy]-3-[6-(4-methylpiperazin-1-yl)pyridin-3-yl]furo[3,2-c]pyridin-6-ylamine], the IC50 at RON (human) and at MET (human) was below 500 nM throughout.
As to `C[C@@H](Oc1c(N)ncc2c(-c3ccnc(N4CCN(C)CC4)c3)coc12)c1c(Cl)ccc(F)c1Cl` [Example 89, 7-[(R)-1-(2,6-Dichloro-3-fluorophenyl)ethoxy]-3-[2-(4-methylpiperazin-1-yl)pyridin-4-yl]-furo[3,2-c]pyridin-6-ylamine], the IC50 on RON (human) and at MET (human) was below 500 nM in each case.
Take `C[C@@H](Oc1c(N)ncc2c(-c3cccc(CN)c3)coc12)c1c(Cl)ccc(F)c1Cl` [Example 90, 3-(3-Aminomethylphenyl)-7-[(R)-1-(2,6-dichloro-3-fluorophenyl)-ethoxy]furo[3,2-c]pyridin-6-ylamine]: the IC50 at RON (human) was 500 to 5000 nM; on MET (human), below 500 nM.
Consider `C[C@@H](Oc1c(N)ncc2c(-c3cccc(CN4CCCCC4)c3)coc12)c1c(Cl)ccc(F)c1Cl` [Example 91, 7-[(R)-1-(2,6-Dichloro-3-fluorophenyl)ethoxy]-3-(3-piperidin-1-ylmethylphenyl)furo[3,2-c]pyridin-6-ylamine], for which the IC50 at RON (human) and on MET (human) was below 500 nM each time.
